# Laboratory results as given in publication PMC10712729, “A Phase I Trial of the Dual MET Kinase/OCT-2 Inhibitor OMO-1 in Metastatic Solid Malignancies Including MET Exon 14 Mutated Lung Cancer” (The Oncologist, 2023).
# Experiments:
# OCT-2 = target: T1, OCT-2 (Homo sapiens, UniProt O15244); assay: Plasma tryptophan and kynurenine levels to explore OCT-2 inhibition; assay type: in vivo
# T1 construct: from tissue; host or cells: patients in vivo (endogenous transporter; serum, plasma and urine markers measured)
# T1 sequence (O15244 1-555): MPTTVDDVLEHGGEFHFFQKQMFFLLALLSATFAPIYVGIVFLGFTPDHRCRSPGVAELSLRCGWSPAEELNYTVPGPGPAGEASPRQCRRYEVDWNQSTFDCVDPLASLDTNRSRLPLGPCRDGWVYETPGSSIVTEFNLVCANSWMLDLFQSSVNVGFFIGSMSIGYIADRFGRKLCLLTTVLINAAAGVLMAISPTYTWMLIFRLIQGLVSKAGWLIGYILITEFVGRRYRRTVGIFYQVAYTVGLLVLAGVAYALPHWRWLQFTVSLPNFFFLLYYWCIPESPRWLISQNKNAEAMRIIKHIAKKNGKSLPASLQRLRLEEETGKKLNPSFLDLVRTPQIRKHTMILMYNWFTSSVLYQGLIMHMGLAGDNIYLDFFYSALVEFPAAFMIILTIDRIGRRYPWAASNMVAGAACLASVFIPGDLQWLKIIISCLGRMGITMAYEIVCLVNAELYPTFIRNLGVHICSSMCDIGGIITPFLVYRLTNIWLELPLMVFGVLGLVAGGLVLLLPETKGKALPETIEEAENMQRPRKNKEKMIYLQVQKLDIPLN
# Procedure: The starting dose was 100 mg BID.
# [1] = tested on: organic cation transporter 2 (OCT-2); design: method as in PMID 14576340; settings: cited from earlier work
# [2] = Phase I safety and tolerability of OMO-1 monotherapy, Module 1 Part A dose escalation (drug-related TEAEs, DLTs, RP2D)
# Excerpt: This study was part of a modular, first-in-patient, openlabel multicenter study of OMO-1, administered orally, mono-therapy, and in combination with EGFR-TKI, in patients with locally advanced, unresectable, or metastatic solid malignancies (study protocol can be). […] Module 1 (OMO-1 monotherapy) consisted of Part A (dose escalation) and Part B (expansion cohorts). Part A assessed the safety and tolerability of ascending doses of OMO-1 given as monotherapy in unselected patients with locally advanced, unresectable, or metastatic malignancies and determined the recommended phase 2 dose (RP2D). Part B assessed the preliminary efficacy of the RP2D of OMO-1 in patients with METex14-positive NSCLC (cohort 1) and patients with MET amplified NSCLC or patients with other MET positive solid tumors, either METex14 or MET amplification (MET basket; cohort 2). The MET status of the tumor was assessed locally by site-specific guidelines. For MET exon 14 skipping mutations next generation sequencing (NGS) was used and for MET amplifications either NGS or fluorescence in situ hybridization (Supplementary 1). Prior treatment with a MET inhibitor was an exclusion criterion.
# OMO-1 was administered orally, twice daily (BID) with a minimal interval of 4-5 h with food in a continuous 21 day/cycle regimen until clinical progression or emergence of significant toxicity. The starting dose was 100 mg BID. The dose was escalated sequentially in cohorts of at least 3 patients using a standard 3 + 3 dose escalation design. […] During the monotherapy dose escalation Module 1 Part A, blood samples were collected for PK analysis throughout the study as per protocol (S1).
# The dose-limiting toxicity (DLT) evaluation period was within the first cycle of treatment; although all events beyond this point were also reviewed at the time of dose escalation to ensure an OLED was chosen as RP2D.
# Safety analyses were descriptive. With respect to primary objectives and endpoints, no specific hypotheses were tested statistically. The primary focus was on determining the safety profile and RP2D, and the identification of a range of biologically active doses and PK of OMO-1 in patients with cancer. Safety, PK, and PD biomarker data were reviewed on an ongoing basis in line with the cohort progression criteria by the Safety Review Committee (SRC).
compound,measurement,setting,value
FC(F)(c1ccc2ncccc2c1)c1nnc2ccc(-c3ccncc3)nn12 [OMO-1],median kynurenin level,"OCT-2; 8 h post-dose, IQR 396-559, pre-dose 509 ng/mL, P = .57",471 ng/mL
same,mean kyn/trp ratio,"OCT-2; 8 h post-dose, pre-dose 57, P < .001",49
same,mean tryptophan plasma level,"OCT-2; cycle 1 day 1, 8 h post-dose, pre-dose 9475 ng/mL, P = .014, 30 patients Module 1",10 605 ng/mL
same,"changes in plasma tryptophan levels and kyn/trp ratio, dependence on dose or Cmax",OCT-2; in vivo,not dose or Cmax dependent
same,inhibition of OCT-2,[1],potent inhibitor
same,"increased blood creatinine, drug-related TEAE",[2]; 100 mg BID cohort,no events
same,"Fatigue, proportion of patients","[2]; 100 mg BID cohort, 1 patient",20.0%
same,"Decreased appetite, Drug-related TEAEs, All grades",[2]; 100 mg BID n = 5,1 (20%) n (%)
same,"Dizziness, Drug-related TEAEs, All grades",[2]; 100 mg BID n = 5,1 (20%) n (%)
same,"Fatigue, Drug-related TEAEs, All grades",[2]; 100 mg BID n = 5,1 (20%) n (%)
same,"Headache, Drug-related TEAEs, All grades",[2]; 100 mg BID n = 5,1 (20%) n (%)
same,"Nausea, Drug-related TEAEs, All grades",[2]; 100 mg BID n = 5,2 (40%) n (%)
same,"Nausea, Drug-related TEAEs, Grade ≥3",[2]; 100 mg BID n = 5,1 (20%) n (%)
same,"Nausea, Drug-related TEAEs, SAE",[2]; 100 mg BID n = 5,1 (20%) n (%)
same,"Total n with AE, Drug-related TEAEs, All grades",[2]; 100 mg BID n = 5,5 (100%) n (%)
same,"Total n with AE, Drug-related TEAEs, Grade ≥3",[2]; 100 mg BID n = 5,2 (40%) n (%)
same,"Total n with AE, Drug-related TEAEs, SAE",[2]; 100 mg BID n = 5,2 (40%) n (%)
same,"Vomiting, Drug-related TEAEs, All grades",[2]; 100 mg BID n = 5,1 (20%) n (%)
same,"Vomiting, Drug-related TEAEs, Grade ≥3",[2]; 100 mg BID n = 5,1 (20%) n (%)
same,"Vomiting, Drug-related TEAEs, SAE",[2]; 100 mg BID n = 5,1 (20%) n (%)
same,"Anemia, Drug-related TEAEs, All grades",[2]; 200 mg BID n = 4,2 (50%) n (%)
same,"Anemia, Drug-related TEAEs, Grade ≥3",[2]; 200 mg BID n = 4,1 (25%) n (%)
same,"Blood creatinine ↑, Drug-related TEAEs, All grades",[2]; 200 mg BID n = 4,3 (75%) n (%)
same,"Chills/ influenza like symptoms, Drug-related TEAEs, All grades",[2]; 200 mg BID n = 4,1 (25%) n (%)
same,"Chills/ influenza like symptoms, Drug-related TEAEs, SAE",[2]; 200 mg BID n = 4,1 (25%) n (%)
same,"Decreased appetite, Drug-related TEAEs, All grades",[2]; 200 mg BID n = 4,1 (25%) n (%)
same,"Diarrhoea, Drug-related TEAEs, All grades",[2]; 200 mg BID n = 4,2 (50%) n (%)
same,"Dizziness, Drug-related TEAEs, All grades",[2]; 200 mg BID n = 4,1 (25%) n (%)
same,"Fatigue, Drug-related TEAEs, All grades",[2]; 200 mg BID n = 4,1 (25%) n (%)
same,"Headache, Drug-related TEAEs, All grades",[2]; 200 mg BID n = 4,3 (75%) n (%)
same,"Nausea, Drug-related TEAEs, All grades",[2]; 200 mg BID n = 4,3 (75%) n (%)
same,"Total n with AE, Drug-related TEAEs, All grades",[2]; 200 mg BID n = 4,4 (100%) n (%)
same,"Total n with AE, Drug-related TEAEs, Grade ≥3",[2]; 200 mg BID n = 4,1 (25%) n (%)
same,"Total n with AE, Drug-related TEAEs, SAE",[2]; 200 mg BID n = 4,1 (25%) n (%)
same,"Vomiting, Drug-related TEAEs, All grades",[2]; 200 mg BID n = 4,2 (50%) n (%)
same,"Vomiting, Drug-related TEAEs, Grade ≥3",[2]; 200 mg BID n = 4,1 (25%) n (%)
same,"diarrhea, all grades",[2]; 250 mg BD,14%
same,"nausea, all grades",[2]; 250 mg BD,57%
same,"vomiting, all grades",[2]; 250 mg BD,43%
same,"Anemia, Drug-related TEAEs, All grades",[2]; 250 mg BID n = 7,1 (14%) n (%)
same,"Blood creatinine ↑, Drug-related TEAEs, All grades",[2]; 250 mg BID n = 7,3 (43%) n (%)
same,"Blood creatinine ↑, Drug-related TEAEs, Grade ≥3",[2]; 250 mg BID n = 7,1 (14%) n (%)
same,"Decreased appetite, Drug-related TEAEs, All grades",[2]; 250 mg BID n = 7,1 (14%) n (%)
same,"Diarrhoea, Drug-related TEAEs, All grades",[2]; 250 mg BID n = 7,1 (14%) n (%)
same,"Dizziness, Drug-related TEAEs, All grades",[2]; 250 mg BID n = 7,1 (14%) n (%)
same,"Fatigue, Drug-related TEAEs, All grades",[2]; 250 mg BID n = 7,3 (43%) n (%)
same,"Fatigue, Drug-related TEAEs, Grade ≥3",[2]; 250 mg BID n = 7,1 (14%) n (%)
same,"Nausea, Drug-related TEAEs, All grades",[2]; 250 mg BID n = 7,4 (57%) n (%)
same,"Nausea, Drug-related TEAEs, SAE",[2]; 250 mg BID n = 7,1 (14%) n (%)
same,"Tachycardia, Drug-related TEAEs, All grades",[2]; 250 mg BID n = 7,1 (14%) n (%)
same,"Total n with AE, Drug-related TEAEs, All grades",[2]; 250 mg BID n = 7,7 (100%) n (%)
same,"Total n with AE, Drug-related TEAEs, SAE",[2]; 250 mg BID n = 7,1 (14%) n (%)
same,"Vomiting, Drug-related TEAEs, All grades",[2]; 250 mg BID n = 7,3 (43%) n (%)
same,patients discontinued due to related toxicity,[2]; 350 mg BID and 400 mg BID cohort,4/8
same,"increased blood creatinine, drug-related TEAE",[2]; 350 mg BID cohort,no events
same,"Chills/ influenza like symptoms, Drug-related TEAEs, All grades",[2]; 350 mg BID n = 5,1 (20%) n (%)
same,"Decreased appetite, Drug-related TEAEs, All grades",[2]; 350 mg BID n = 5,1 (20%) n (%)
same,"Dizziness, Drug-related TEAEs, All grades",[2]; 350 mg BID n = 5,1 (20%) n (%)
same,"Fatigue, Drug-related TEAEs, All grades",[2]; 350 mg BID n = 5,3 (60%) n (%)
same,"Headache, Drug-related TEAEs, All grades",[2]; 350 mg BID n = 5,1 (20%) n (%)
same,"Nausea, Drug-related TEAEs, All grades",[2]; 350 mg BID n = 5,1 (20%) n (%)
same,"Tachycardia, Drug-related TEAEs, All grades",[2]; 350 mg BID n = 5,1 (20%) n (%)
same,"Total n with AE, Drug-related TEAEs, All grades",[2]; 350 mg BID n = 5,4 (80%) n (%)
same,"Total n with AE, Drug-related TEAEs, SAE",[2]; 350 mg BID n = 5,1 (20%) n (%)
